What was measured:
[1] = tested on: interferon-sensitive response element (ISRE)-firefly luciferase; test: ISRE luciferase assay, ISRE-Luc CT-26 cells; type: cell-based, mouse; conditions: 16 h, saturating doses
Procedure: 10,000 ISRE-Luc CT-26 or WT CT-26 cells were seeded into wells of a white 96-well plate and grown overnight. Compounds were serial diluted at 1000× concentration in DMSO. For dosing, compound dose response curves were dilute 1:100 in culture media, then added at 1:10 dilution to cell culture. Final DMSO concentration was 0.1%. Cells were incubated in treatment for 18 hours. Following treatment, the plates were developed using ONE-Glo Luciferase Assay system (Promega) per manufacturer directions. The luminescence signal was read on a Spectra Max i3 (Molecular Devices) plate reader with a 2 second integration time. WT CT-26 signal was background subtracted and curves were fit using a four-parameter […] regression in GraphPad Prism 9.

PARP7 [2] = target: T1, PARP7 (Mus musculus (Mouse), UniProt Q8C1B2); test: PARP7 protein levels Western blot in CT-26 cells; type: cell-based
Procedure: (§1) FIG. 4B provides of Western blots in FIG. 4A. Quantification was performed using BioRad ImageLab software. Curves were fit using four parameter nonlinear regression in GraphPad Prism. STAT1 and pSTAT1 levels were normalized to tubulin. Data was from 3 biological replicates. […] Treatment was as in FIG. 4A. Note: tubulin blot was the same as in FIG. 4A since samples were run on the same nitrocellulose membrane for western blot analysis. SE=short exposure; LE=long exposure. […] Treatment was as in FIG. 4A. Note: tubulin blot is the same as in FIG. 4A since samples were run on the same nitrocellulose membrane for western blot analysis. […] Quantification was performed using BioRad ImageLab software. Curves fitting was done using a four parameter nonlinear regression in GraphPad Prism. PARP7 levels were normalized to tubulin. Data was from 3 biological replicates. […] IFN-0 levels were determined by ELISA (PBL Assay Science). Statistical analysis was performed as one-way ANOVA in GraphPad Prism. ****=p<0.001. […] Luciferase levels were measured using a luciferase assay reagent (Promega). […] Treatment was same as in FIG. 10A. Note: tubulin blot is the same as in FIG. 10A since samples were run on the same nitrocellulose membrane for western blot analysis. […] Treatment was same as in FIG. 10A. […] Proteins were detected by Western blot using specific antibodies.

endogenous PARP7 = endogenous PARP7 (Mus musculus (Mouse), UniProt Q8C1B2); test: Endogenous PARP7 protein levels in CT-26 cells (western blot); type: cell-based
Sequence of endogenous PARP7 (Q8C1B2 whole entry): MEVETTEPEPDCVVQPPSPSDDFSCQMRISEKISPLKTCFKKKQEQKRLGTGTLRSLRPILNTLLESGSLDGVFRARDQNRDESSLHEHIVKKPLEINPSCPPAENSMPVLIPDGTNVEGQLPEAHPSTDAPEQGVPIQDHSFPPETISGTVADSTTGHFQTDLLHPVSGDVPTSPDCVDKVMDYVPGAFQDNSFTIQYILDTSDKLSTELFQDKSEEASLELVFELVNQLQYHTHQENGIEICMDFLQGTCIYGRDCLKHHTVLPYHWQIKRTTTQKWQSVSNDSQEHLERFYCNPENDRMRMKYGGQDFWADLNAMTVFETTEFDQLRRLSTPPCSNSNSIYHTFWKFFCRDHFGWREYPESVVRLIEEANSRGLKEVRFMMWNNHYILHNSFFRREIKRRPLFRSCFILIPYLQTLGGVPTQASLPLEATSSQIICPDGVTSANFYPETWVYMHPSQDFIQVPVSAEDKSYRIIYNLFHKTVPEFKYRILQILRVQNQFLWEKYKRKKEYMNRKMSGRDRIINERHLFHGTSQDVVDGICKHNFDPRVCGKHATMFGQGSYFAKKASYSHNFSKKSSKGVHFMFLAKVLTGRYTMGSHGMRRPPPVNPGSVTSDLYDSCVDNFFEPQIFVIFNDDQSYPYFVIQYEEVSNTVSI

IFN-β = IFN-β ELISA in CT-26 cells; type: cell-based; conditions: 300 nM, 16 h, with or without STING inhibitor H-151 (500 nM)
Procedure: (§2) FIG. 4B provides of Western blots in FIG. 4A. Quantification was performed using BioRad ImageLab software. Curves were fit using four parameter nonlinear regression in GraphPad Prism. STAT1 and pSTAT1 levels were normalized to tubulin. Data was from 3 biological replicates. […] Treatment was as in FIG. 4A. Note: tubulin blot was the same as in FIG. 4A since samples were run on the same nitrocellulose membrane for western blot analysis. SE=short exposure; LE=long exposure. […] Treatment was as in FIG. 4A. Note: tubulin blot is the same as in FIG. 4A since samples were run on the same nitrocellulose membrane for western blot analysis. […] Quantification was performed using BioRad ImageLab software. Curves fitting was done using a four parameter nonlinear regression in GraphPad Prism. PARP7 levels were normalized to tubulin. Data was from 3 biological replicates. […] IFN-0 levels were determined by ELISA (PBL Assay Science). Statistical analysis was performed as one-way ANOVA in GraphPad Prism. ****=p<0.001. […] Luciferase levels were measured using a luciferase assay reagent (Promega).

[3] = tested on: type I interferon reporter; test: IRSE luciferase reporter in CT-26 cells; type: cell-based; conditions: CT-26 cells stably expressing IRSE luciferase reporter, 16 h
Procedure: as §2

GFP-PARP7 = GFP-PARP7 (Homo sapiens (Human), UniProt Q7Z3E1); test: Live cell imaging of GFP-PARP7 in HeLa cells; type: cell-based; conditions: HeLa cells overexpressing GFP-PARP7 and mRuby2-Nup90, 300 nM
Sequence of GFP-PARP7 (Q7Z3E1 whole entry): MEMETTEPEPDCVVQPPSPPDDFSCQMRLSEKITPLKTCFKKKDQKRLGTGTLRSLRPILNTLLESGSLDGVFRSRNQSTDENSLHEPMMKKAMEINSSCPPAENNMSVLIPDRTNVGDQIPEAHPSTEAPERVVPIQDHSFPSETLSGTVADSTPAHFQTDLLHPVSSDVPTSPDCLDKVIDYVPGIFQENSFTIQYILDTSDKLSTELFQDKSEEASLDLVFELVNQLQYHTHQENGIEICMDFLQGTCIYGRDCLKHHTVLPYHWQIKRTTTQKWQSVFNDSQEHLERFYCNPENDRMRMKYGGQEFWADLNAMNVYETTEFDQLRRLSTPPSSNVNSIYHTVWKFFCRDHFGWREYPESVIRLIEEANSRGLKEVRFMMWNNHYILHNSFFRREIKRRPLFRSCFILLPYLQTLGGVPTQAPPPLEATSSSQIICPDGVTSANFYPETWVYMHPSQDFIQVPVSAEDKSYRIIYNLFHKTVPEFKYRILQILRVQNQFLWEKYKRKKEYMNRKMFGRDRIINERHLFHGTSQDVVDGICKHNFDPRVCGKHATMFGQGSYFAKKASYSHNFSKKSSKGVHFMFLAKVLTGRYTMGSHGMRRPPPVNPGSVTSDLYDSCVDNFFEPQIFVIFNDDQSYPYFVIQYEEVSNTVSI

NCI-H1373 cells [4] = test: Cell Titer-Glo viability, NCI-H1373; type: cell-based; conditions: Homo sapiens, NCI-H1373, 144 h; 6 days, CellTiter-Glo
Procedure: NCI-H1373 cells were seeded in a white 96-well plate (Corning) at a density of 1,000 cells per well. After 24 hours, cells were treated with PARP7 inhibitors and incubated at 37° C. for 6 days. Cell viability was assessed using CellTiter-Glo (CTG) 2.0 (Promega). After addition of the CTG reagent (following manufacturer protocol), the plate was incubated on an orbital shaker for 15 min (protected from light) at room temperature. Chemiluminescence was measured on a Spectra Max i3 (Molecular Devices), normalized to DMSO-treated wells, and IC50 values were calculated by non-linear regression (three-parameter fit) analysis using Prism 9 (GraphPad).

[5] = tested on: STAT1 and STAT1 Tyr701 phosphorylation (pSTAT1); test: STAT1 and pSTAT1 (Tyr701) western blot in CT-26 cells; type: cell-based, mouse; conditions: increasing concentrations, 16 h
NCI-H1373 cells [6] = test: Cell Titer-Glo viability assay in NCI-H1373 cells; type: cell-based; conditions: 6 d treatment, increasing concentrations
Excerpt: Curves were fit using three parameter a nonlinear regression in GraphPad Prism.

PARP7 [7] = target: T1, PARP7; test: Cell fractionation and PARP7 Western blot in CT-26 cells; type: cell-based; conditions: 300 nM, 18 h, fractionation
HiBiT-PARP7 = HiBiT-PARP7 (Mus musculus (Mouse), UniProt Q8C1B2); test: Nuclear PARP7 immunofluorescence in HiBiT-PARP7 knockin CT-26 cells; type: cell-based; conditions: HiBiT-PARP7 KI CT-26 cells, 300 nM, 18 h
Sequence of HiBiT-PARP7 (Q8C1B2 whole entry): as the sequence (Q8C1B2 whole entry) above

STING = STING degradation and signaling Western blot in CT-26 cells; type: cell-based
Procedure: as §1

[8] = tested on: STAT1 and phosphor-Tyr701-STAT1 (pSTAT1); test: STAT1 and pSTAT1 Western blot in CT-26 cells; type: cell-based
Procedure: as §1

secreted IFN-β = test: Interferon-β ELISA, CT-26 cells; type: cell-based, mouse; conditions: saturating doses
Procedure: CT-26 cells were seeded into a 6-well plate. After 24 h, the growth media was replaced, and cells were treated with inhibitors. After treatment, growth media was harvested and assayed with PBL Verikine Mouse IFN-β ELISA kit following the manufacturer protocol.

[9] = increasing concentrations, 16 h

## C[C@@H](COCCC(=O)N1CCN(c2ncc(C(F)(F)F)cn2)CC1)Nc1cn[nH]c(=O)c1C(F)(F)F [RBN-2397]
[1]
  magnitude of ISRE-Luc response compared to Example 10: ~2 fold
PARP7 [2]; 300 nM
  PARP7 levels, time dependence: increase PARP7 levels in a time-dependent manner
PARP7 [2]; [9]
  PARP7 levels, dose dependence: increase PARP7 levels in a dose-dependent manner
Endogenous PARP7
  endogenous PARP7 levels: increased PARP7 levels
Endogenous PARP7; saturating doses
  increase in PARP7 protein abundance compared to Example 10: 2 fold
IFN-β
  IFN-β levels: increase IFN-β levels in a STING-dependent manner
[3]
  type I interferon reporter levels: increase type I interferon reporter levels in a dose dependent manner
GFP-PARP7
  time to detectable increase in nuclear PARP7 levels: ≤ 30 min
NCI-H1373 cells [4]
  EC50: 17.8 nM
[5]
  STAT1 and pSTAT1 levels: dose-dependently increased STAT1 and pSTAT1 levels
NCI-H1373 cells [6]
  cell viability: decreases viability
PARP7 [7]
  subcellular localisation of PARP7: PARP7 levels were only detected in nucleus
HiBiT-PARP7
  nuclear PARP7 protein levels: increases nuclear PARP7 protein levels
STING; 300 nM
  STING and pIRF3 levels, time dependence: decrease STING levels and increase pIRF3 levels in a time-dependent manner
STING; [9]
  STING degradation and signaling: induced STING degradation and signaling, but not to the same extent as a STING agonist
[8]; 300 nM
  STAT1 and pSTAT1 levels, time dependence: increase STAT1 and pSTAT1 in a time-dependent manner
[8]; [9]
  STAT1 and pSTAT1 levels, dose dependence: increase STAT1 and phosphor-Tyr701-STAT1 (pSTAT1) in a dose-dependent manner
Secreted IFN-β
  levels of secreted IFN-β: increased significantly the levels of secreted IFN-β to a greater extent than Example 10

— patent publication US20260055079A1, “PHTHALAZINONE COMPOUNDS AS PARP7 INHIBITORS” (AZKARRA THERAPEUTICS, INC., priority 2022, published 2026)
